Results as given in paper PMC3312352, “Peptides of the Constant Region of Antibodies Display Fungicidal Activity” (PLoS ONE, 2012).
Read-outs that look alike come from different tables or passages of the source. Ends that are not written are not given here. Peptide text beside a SMILES is read from it.

What was measured:
C. albicans SC5314 [1] = conditions: SC5314, 6 h
Method: (§1) Selected Fc-peptides, or their asds, were preliminarily tested at the concentration of 100 µg/ml. […] Conventional colony forming unit (CFU) assays were performed as previously described [2]. Briefly, yeast cells from a fresh (20 h at 30°C) actively growing colony on Sabouraud Dextrose agar (SDA) (C. albicans, C. glabrata, C. neoformans) or on SDA supplemented with 1% Tween 20 (M. furfur) were suspended in 199 medium. Initial germination was induced in C. albicans cells by incubation for 1 h at 37°C with shaking. Suspensions were properly diluted to obtain approximately 500 fungal cells in 100 µl of distilled water in the presence or absence (control growth) of the synthetic Fc-peptide to be tested. Cell suspensions were incubated at 37°C for 6 h, then plated on SDA or SDA-Tween. CFU were enumerated after 48–72 h of incubation at 30°C, and peptide fungicidal activity was determined as percentage of CFU inhibition, according to the formula 100-(CFU Fc-peptide treated/CFU control growth)×100. Each assay was carried out in triplicate for statistical purposes.
(§2) EC50 was calculated by nonlinear regression analysis using Graph Pad Prism 4.01 software, San Diego, CA, USA.

C. albicans CA-6 = conditions: CA-6, 6 h
Method: as §1, §2

C. albicans SA40 = conditions: SA40, 6 h
Method: as §1, §2

C. albicans AIDS68 [2] = conditions: AIDS68, 6 h
Method: as §1, §2

C. albicans UM4 = conditions: UM4, 6 h
Method: as §1, §2

C. glabrata OMNI32 = conditions: OMNI32, 6 h
Method: as §1, §2

C. neoformans 6995 = conditions: 6995, 6 h
Method: as §1, §2

M. furfur 101 = conditions: 6 h
Method: as §1, §2

C. albicans SC5314 [3] = test: CFU assay, in vitro fungicidal activity; conditions: for EC50 asd/EC50 T11F / EC50 asd/EC50 N10K: ratio of EC50 values against C. albicans SC5314; for EC50: read-out: EC50 (95% confidence intervals), scalar dilutions, 6 h at 37°C in distilled water, nonlinear regression; for EC50 / % inhibitory activity at 100 µg/ml in comparison to the control growth (water): CFU assay, C. albicans SC5314, triplicate; for % inhibitory activity at 100 µg/ml in comparison to the control growth (water): peptide 100 µg/ml, ~500 cells in 100 µl distilled water, 6 h at 37°C
Method: as §1, §2

C. albicans AIDS68 [4] = test: Experimental vaginal candidiasis in mice; format: in vivo, Candida albicans; conditions: mice infected with C. albicans AIDS68; 100 µg in PBS at 1, 24, 48 h after challenge

| Molecule | % inhibitory activity at 100 µg/ml in comparison to the control growth (water) (C. albicans SC5314 [1]) | EC50 asd/EC50 T11F (C. albicans SC5314 [3]) | EC50 (C. albicans SC5314 [3]) | EC50 (C. albicans SC5314 [1]) | EC50 asd/EC50 N10K (C. albicans SC5314 [3]) | also measured |
| --- | --- | --- | --- | --- | --- | --- |
| NQVSLTCLVK [Peptide N10K] | 100% | – | – | – | – | % inhibitory activity at 100 µg/ml in comparison to the control growth (water) (C. albicans CA-6): 100%; % inhibitory activity at 100 µg/ml in comparison to the control growth (water) (C. albicans SA40): 100%; % inhibitory activity at 100 µg/ml in comparison to the control growth (water) (C. albicans AIDS68 [2]): 100%; % inhibitory activity at 100 µg/ml in comparison to the control growth (water) (C. albicans UM4): 100%; % inhibitory activity at 100 µg/ml in comparison to the control growth (water) (C. glabrata OMNI32): 100%; % inhibitory activity at 100 µg/ml in comparison to the control growth (water) (C. neoformans 6995): 100%; % inhibitory activity at 100 µg/ml in comparison to the control growth (water) (M. furfur 101): 100% |
| TCAVDHRGLTF [Peptide R3A] | 97.61% | 8.74 | 13500 nM | – | – | – |
| TCRVDHRGLTF [Peptide T11F] | 100% | – | – | – | – | % inhibitory activity at 100 µg/ml in comparison to the control growth (water) (C. albicans CA-6): 100%; % inhibitory activity at 100 µg/ml in comparison to the control growth (water) (C. albicans SA40): 100%; % inhibitory activity at 100 µg/ml in comparison to the control growth (water) (C. albicans AIDS68 [2]): 100%; % inhibitory activity at 100 µg/ml in comparison to the control growth (water) (C. albicans UM4): 100%; % inhibitory activity at 100 µg/ml in comparison to the control growth (water) (C. glabrata OMNI32): 100%; % inhibitory activity at 100 µg/ml in comparison to the control growth (water) (C. neoformans 6995): 100%; % inhibitory activity at 100 µg/ml in comparison to the control growth (water) (M. furfur 101): 100% |
| NQVSATCLVK [Peptide L5A] | 100% | – | – | 885 nM | 0.88 | – |
| NQVSLTCLAK [Peptide V9A] | 100% | – | – | 1780 nM | 1.77 | – |
| TCRVDHAGLTF [Peptide R7A] | 100% | 7.83 | 12100 nM | – | – | – |
| AQVSLTCLVK [Peptide N1A] | 100% | – | – | 587 nM | 0.58 | – |
| TCRVDHRGLTA [Peptide F11A] | 100% | 1.64 | 2520 nM | – | – | – |
| TCRVDHRALTF [Peptide G8A] | 100% | 1.01 | 1550 nM | – | – | – |
| ACRVDHRGLTF [Peptide T1A] | 100% | 0.48 | 738 nM | – | – | – |
| NQVALTCLVK [Peptide S4A] | 100% | – | – | 2390 nM | 2.38 | – |
| TARVDHRGLTF [Peptide C2A] | 79.32% | 21.12 | 32500 nM | – | – | – |
| TCRADHRGLTF [Peptide V4A] | 100% | 0.74 | 1130 nM | – | – | – |
| NQVSLTCAVK [Peptide L8A] | – | – | – | 744 nM | 0.74 | % inhibitory activity at 100 µg/ml in comparison to the control growth (water) (C. albicans SC5314 [3]): 100% |
| NQVSLACLVK [Peptide T6A] | 100% | – | – | 4880 nM | 4.86 | – |
| TCRVAHRGLTF [Peptide D5A] | 100% | 0.26 | 395 nM | – | – | – |
| NAVSLTCLVK [Peptide Q2A] | 100% | – | – | 2300 nM | 2.30 | – |
| NQVSLTALVK [Peptide C7A] | 73.41% | – | – | 54900 nM | 54.66 | – |
| OC(Cn1cncn1)(Cn1cncn1)c1ccc(F)cc1F [fluconazole] | – | – | – | – | – | response of vaginal infection to treatment (C. albicans AIDS68 [4]): resistant to treatment |
| TCRVDHRGLAF [Peptide T10A] | 100% | 0.55 | 850 nM | – | – | – |
| TCRVDARGLTF [Peptide H6A] | 100% | 6.76 | 10400 nM | – | – | – |
| NQASLTCLVK [Peptide V3A] | – | – | – | 5930 nM | 5.91 | % inhibitory activity at 100 µg/ml in comparison to the control growth (water) (C. albicans SC5314 [3]): 100% |
| NQVSLTCLVA [Peptide K10A] | 0% | – | – | – | – | – |
| TCRVDHRGATF [Peptide L9A] | 100% | 1.14 | 1750 nM | – | – | – |
| CC(C)C[C@H](NC(=O)[C@H](C)NC(=O)[C@H](CCC(=O)O)NC(=O)[C@@H](N)Cc1c[nH]cn1)C(=O)O [Peptide H4L] (H-HEAL-OH; N-terminus and C-terminus assumed) | 84.34% | – | – | – | – | % inhibitory activity at 100 µg/ml in comparison to the control growth (water) (C. albicans CA-6): 57.04%; % inhibitory activity at 100 µg/ml in comparison to the control growth (water) (C. albicans SA40): 55.99%; % inhibitory activity at 100 µg/ml in comparison to the control growth (water) (C. albicans AIDS68 [2]): 59.82%; % inhibitory activity at 100 µg/ml in comparison to the control growth (water) (C. albicans UM4): 64.63%; % inhibitory activity at 100 µg/ml in comparison to the control growth (water) (C. glabrata OMNI32): 80.49%; % inhibitory activity at 100 µg/ml in comparison to the control growth (water) (C. neoformans 6995): 85.08%; % inhibitory activity at 100 µg/ml in comparison to the control growth (water) (M. furfur 101): 92.04% |
